Structures can show the parent of a compound that is named as a salt.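 These data come from cells grown in 96-well plates and exposed to compound for 48 hours at five concentrations. Abbreviation: GI50, concentration required for 50% inhibition of growth.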 Calls of active or inactive are those of the source. No stated cut-off is given here; in the data, active = GI50 up to about 1.1 µM and inactive = higher.
Legend:
Experiment in all cases: NCI anticancer screen, dose series, 48 h
[1] = system: MCF7
[2] = system: 786-0
[3] = system: OVCAR-4
[4] = system: HOP-62
[5] = system: OVCAR-3
[6] = system: NCI-H23
[7] = system: EKVX
[8] = system: UACC-62
[9] = system: TK-10
[10] = system: K562
[11] = system: NCI-H522
[12] = system: SK-MEL-28
[13] = system: NCI/ADR-RES
[14] = system: HCT-116
[15] = system: Hs-578T
[16] = system: PC-3
[17] = system: HT-29
[18] = system: SF-295
[19] = system: KM12

| Compound | GI50 [1] | GI50 [2] | GI50 [3] | GI50 [4] | GI50 [5] | GI50 [6] | GI50 [7] | GI50 [8] | GI50 [9] | GI50 [10] | GI50 [11] | GI50 [12] | GI50 [13] | GI50 [14] | GI50 [15] | GI50 [16] | GI50 [17] | GI50 [18] | GI50 [19] |
| --- | --- | --- | --- | --- | --- | --- | --- | --- | --- | --- | --- | --- | --- | --- | --- | --- | --- | --- | --- |
| C=CCC(CCC(C)=O)(C(=O)OCC)C(=O)OCC | > 100 µM (inactive) | > 100 µM (inactive) | > 100 µM (inactive) | > 100 µM (inactive) | > 100 µM (inactive) | > 100 µM (inactive) | > 100 µM (inactive) | > 100 µM (inactive) | > 100 µM (inactive) | > 100 µM (inactive) | > 100 µM (inactive) | > 100 µM (inactive) | > 100 µM (inactive) | > 100 µM (inactive) | > 100 µM (inactive) | > 100 µM (inactive) | > 100 µM (inactive) | > 100 µM (inactive) | > 100 µM (inactive) |
| CC(C)(C)N1CSC(=S)N(Cc2ccco2)C1 | 0.52 µM (active) | 1.63 µM (inactive) | 12.1 µM (inactive) | 4.8 µM (inactive) | 1.94 µM (inactive) | 2.37 µM (inactive) | 14.4 µM (inactive) | 7.05 µM (inactive) | 3.04 µM (inactive) | 1.85 µM (inactive) | 3.27 µM (inactive) | 2.4 µM (inactive) | 4.11 µM (inactive) | 3.81 µM (inactive) | 4.78 µM (inactive) | 3.35 µM (inactive) | 3.27 µM (inactive) | 15.8 µM (inactive) | 2.7 µM (inactive) |
| Cc1ccc(/N=N/C(=N/c2ccccc2)c2ccc(N(CCC#N)CCC#N)cc2)cc1 | 22.1 µM (inactive) | 37.8 µM (inactive) | 42.6 µM (inactive) | 30.1 µM (inactive) | 20.1 µM (inactive) | 18.3 µM (inactive) | 30.6 µM (inactive) | 21.8 µM (inactive) | 27.2 µM (inactive) | 47.3 µM (inactive) | 17.4 µM (inactive) | 39.8 µM (inactive) | > 100 µM (inactive) | 32.9 µM (inactive) | 37 µM (inactive) | 17.9 µM (inactive) | 30.9 µM (inactive) | 27.2 µM (inactive) | 24.3 µM (inactive) |
| COC(=O)[C@]1(C)CCC[C@@]2(C)C1CC[C@@]13C=C(C(C)C)[C@@H](CC1=O)CC23 (stereo partly drawn) | 26.1 µM (inactive) | 25.9 µM (inactive) | 35.2 µM (inactive) | 30.6 µM (inactive) | 21.4 µM (inactive) | 34 µM (inactive) | 27.4 µM (inactive) | 28.6 µM (inactive) | 43.8 µM (inactive) | 13.8 µM (inactive) | 18.6 µM (inactive) | 41.3 µM (inactive) | 23 µM (inactive) | 20.4 µM (inactive) | 13.4 µM (inactive) | 21.6 µM (inactive) | 18.2 µM (inactive) | 30.6 µM (inactive) | 34.5 µM (inactive) |
| CC(C)(C)c1cc([N+](=O)[O-])cc([N+](=O)[O-])c1O [DINOTERB] | > 10 µM (inactive) | > 10 µM (inactive) | > 10 µM (inactive) | > 10 µM (inactive) | > 10 µM (inactive) | > 10 µM (inactive) | 9.86 µM (inactive) | > 10 µM (inactive) | > 10 µM (inactive) | 9.29 µM (inactive) | > 10 µM (inactive) | > 10 µM (inactive) | > 10 µM (inactive) | > 10 µM (inactive) | 8.71 µM (inactive) | 5.52 µM (inactive) | > 10 µM (inactive) | > 10 µM (inactive) | > 10 µM (inactive) |
| O=[N+]([O-])c1ccc(/C=N/n2c(CO)nc3ccccc32)o1 | 2.96 µM (inactive) | 4.04 µM (inactive) | 7.1 µM (inactive) | 11.9 µM (inactive) | 2.22 µM (inactive) | 5.42 µM (inactive) | 11.3 µM (inactive) | 7.52 µM (inactive) | 6.55 µM (inactive) | 4.67 µM (inactive) | 2.28 µM (inactive) | 3.52 µM (inactive) | 15.7 µM (inactive) | 1.71 µM (inactive) | 12.7 µM (inactive) | 10.2 µM (inactive) | 2.8 µM (inactive) | 11.7 µM (inactive) | 3.11 µM (inactive) |
| OC(CNc1ccccn1)c1ccccc1 (stereo not drawn) [PHENYRAMIDOL HYDROCHLORIDE] | > 100 µM (inactive) | > 100 µM (inactive) | > 100 µM (inactive) | > 100 µM (inactive) | > 100 µM (inactive) | > 100 µM (inactive) | > 100 µM (inactive) | > 100 µM (inactive) | > 100 µM (inactive) | 85.5 µM (inactive) | > 100 µM (inactive) | > 100 µM (inactive) | > 100 µM (inactive) | > 100 µM (inactive) | > 100 µM (inactive) | > 100 µM (inactive) | > 100 µM (inactive) | > 100 µM (inactive) | > 100 µM (inactive) |

Source: ChEMBL document CHEMBL1201862, “PubChem BioAssay data set” (2004)
